Legend:
[1] = Kinetic solubility test in water and bio-relevant media (SGF, FaSSIF, FeSSIF); format: physicochemical; details: for S: solubility: 37° C.; for Purity (%), area percentage of API: for reference only (suspensions); for FC: form change: residual solids by XRPD; for pH: supernatant
Experimental: Weigh 100 mg of sodium chloride and 50 mg of Triton X-100 into a 50-mL volumetric flask. Add appropriate volume of purified water and sonicate until all solids are completely dissolved. Add about 68 μL of 12 M HCl and sufficient purified water closely to the target volume and adjust to pH 1.8. Dilute to volume with purified water, mix well and check the pH with a pH meter.
Weigh 170 mg of sodium phosphate monobasic, 21 mg of sodium hydroxide and 310 mg of sodium chloride, 110 mg of SIF powder into a 50-mL volumetric flask. Add appropriate volume of purified water and sonicate until all solids are completely dissolved. Add sufficient purified water closely to the target volume and adjust to pH 6.5. Dilute to volume with purified water, mix well and check the pH with a pH meter.
Weigh 0.41 mL of glacial acetic acid, 202 mg of sodium hydroxide and 594 mg of sodium chloride, 560 mg of SIF powder into a 50-mL volumetric flask. Add appropriate volume of purified water to dissolve the solids. Then add sufficient purified water closely to the target volume and adjust to pH 5.0. Dilute to volume with purified water, mix well and check the pH with a pH meter.
Kinetic solubility was evaluated in water and three bio-relevant media (SGF, FaSSIF and FeSSIF) for 1/4/24 hours. 3-4 mg of solids were suspended in 3 mL each medium (solid loading: 1 mg/mL, calculated using freeform) to get a suspension, followed by rolling (25 rpm) at 37° C. for 1/4/24 hours. At each time point, ˜1.0 mL of suspension was sampled out for centrifugation (12000 rpm, 2 min) and filtration through 0.45 μm PTFE membrane to obtain supernatant for HPLC and pH tests, the residual solids were analyzed by XRPD.
Kinetic solubility was evaluated for 1:1 Compound II Citrate Salt (Form A), 1:1 Compound II Tris Salt (Form B), and freeform of Compound II in water and three bio-relevant media (SGF, FaSSIF and FeSSIF) for 1/4/24 hours. 3-4 mg of solids were suspended in 3 mL each medium (solid loading:
1 mg/mL, calculated using freeform) to get a suspension, followed by rolling (25 rpm) at 37° C. for 1/4/24 hours. At each time point, ˜1.0 mL of suspension was sampled out for centrifugation (12000 rpm, 2 min) and filtration through 0.45 μm PTFE membrane to obtain supernatant for HPLC and pH tests, the residual solids were analyzed by XRPD. […] The purity results were for reference only since the samples were all suspensions.

[2] = Solid stability evaluation (I/II), XRPD and HPLC; format: physicochemical; details: for Observation / Purity (area %): listed as Freeform
Experimental: To evaluate the physical and chemical stability of 1:1 Compound I Tris Salt (Form A) and amorphous free form, samples were stored under the conditions of 60° C. for 1 day and 25° C./60% RH or 40° C./75% RH for 1 week, respectively.
To evaluate the physical and chemical stability of 1:1 Compound II Citrate Salt (Form A), 1:1 Compound II Tris Salt (Form B) and freeform, samples were stored under the conditions of 60° C. for 1 day and 25° C./60% RH or 40° C./75% RH for 1 week, respectively.

[3] = FaSSIF, 1 hour, listed as Freeform
[4] = FaSSIF, 4 hours, listed as Freeform
[5] = FaSSIF, 24 hours, listed as Freeform
[6] = FeSSIF, 1 hour, listed as Freeform
[7] = FeSSIF, 4 hours, listed as Freeform
[8] = FeSSIF, 24 hours, listed as Freeform
[9] = H2O, 1 hour, listed as Freeform
[10] = H2O, 4 hours, listed as Freeform
[11] = H2O, 24 hours, listed as Freeform
[12] = SGF, 1 hour, listed as Freeform
[13] = SGF, 4 hours, listed as Freeform
[14] = SGF, 24 hours, listed as Freeform

For `N#Cc1ccc(COc2cccc(C3=CCN(Cc4nc5ccc(C(=O)O)cc5n4C[C@@H]4CCO4)CC3)n2)c(F)c1` [Compound II, (S)-2-((6-((4-cyano-2-fluorobenzyl)oxy)-3′,6′-dihydro-[2,4′-bipyridin]-1′(2′H)-yl)methyl)-1-(oxetan-2-ylmethyl)-1H-benzo[d]imidazole-6-carboxylic acid], the “S: solubility” value [1, 3] was 20 µg/mL, the “Purity (%), area percentage of API” value [1, 3] was 85.92% and the “S: solubility” value [1, 4] was 20 µg/mL. For the same compound, the “Purity (%), area percentage of API” value [1, 4] was 72.84%, the “S: solubility” value [1, 5] was 20 µg/mL and the “Purity (%), area percentage of API” value [1, 5] was 66.76%. For the same compound, the “S: solubility” value [1, 6] was 30 µg/mL, the “Purity (%), area percentage of API” value [1, 6] was 71.16% and the “S: solubility” value [1, 7] was 20 µg/mL. The “Purity (%), area percentage of API” value [1, 7] was 47.29%, the “S: solubility” value [1, 8] was 40 µg/mL and the “Purity (%), area percentage of API” value [1, 8] was 37.65%. The “S: solubility” value [1, 9] was 30 µg/mL, the “Purity (%), area percentage of API” value [1, 9] was 93.84% and the “S: solubility” value [1, 10] was 30 µg/mL. For the same compound, the “Purity (%), area percentage of API” value [1, 10] was 86.44%, the “S: solubility” value [1, 11] was 40 µg/mL and the “Purity (%), area percentage of API” value [1, 11] was 89.76%. The “S: solubility” value [1, 12] was 200 µg/mL, the “Purity (%), area percentage of API” value [1, 12] was 94.17% and the “S: solubility” value [1, 13] was 200 µg/mL. For the same compound, the “Purity (%), area percentage of API” value [1, 13] was 81.32%, the “S: solubility” value [1, 14] was 100 µg/mL and the “Purity (%), area percentage of API” value [1, 14] was 76.04%. For the same compound, the “FC: form change” value ([1]; FaSSIF, 1 hour) was “No”, the “FC: form change” value [1, 4] was “No” and the “FC: form change” value ([1]; FaSSIF, 24 hours) was “Yes”. For the same compound, the “FC: form change” value ([1]; FeSSIF, 1 hour) was “No”, the “FC: form change” value ([1]; FeSSIF, 4 hours) was “Yes” and the “FC: form change” value [1, 8] was “No”. The “FC: form change” value ([1]; H2O, 1 hour) was “No”, the “FC: form change” value [1, 10] was “No” and the “FC: form change” value [1, 11] was “No”. The “FC: form change” value [1, 12] was “No”, the “FC: form change” value ([1]; SGF, 4 hours) was “Yes” and the “FC: form change” value ([1]; SGF, 24 hours) was “Yes”. It also gave a pH [1, 3] of 6.5, a pH [1, 4] of 6.5 and a pH [1, 5] of 6.4. For the same compound, the pH [1, 6] was 5.0, the pH [1, 7] was 5.1 and the pH [1, 8] was 5.0. The pH [1, 9] was 6.6, the pH [1, 10] was 7.0 and the pH [1, 11] was 7.3. It also gave a pH ([1]; SGF, 1 hour) of 1.9, a pH [1, 13] of 1.9 and a pH [1, 14] of 1.8. For the same compound, the Form change ([2]; 25° C./60% RH (open), 1 week) was “No”, the Observation ([2]; 25° C./60% RH (open), 1 week) was “Yellow” and the “Purity (area %)” value ([2]; 25° C./60% RH (open), 1 week) was 94.58 area %. The Form change ([2]; 40° C./75% RH (open), 1 week) was “No”, the Observation ([2]; 40° C./75% RH (open), 1 week) was “Yellow” and the “Purity (area %)” value ([2]; 40° C./75% RH (open), 1 week) was 92.86 area %. The Form change ([2]; 60° C. (capped), 1 day) was “No”, the Observation ([2]; 60° C. (capped), 1 day) was “Yellow” and the “Purity (area %)” value ([2]; 60° C. (capped), 1 day) was 88.94 area %. For the same compound, the Form change ([2]; Initial) was “No”, the Observation ([2]; Initial) was “Yellow” and the “Purity (area %)” value ([2]; Initial) was 95.27 area %.
